Results reported in article PMC8041284, “Tunable Methacrylamides for Covalent Ligand Directed Release Chemistry” (Journal of the American Chemical Society, 2021).

The compounds below were run against BTK (Homo sapiens, UniProt Q06187) (assay: biochemical). Conditions: read-out: BTK inhibition (%).
Sequence of BTK (Q06187 402-655 limits assumed): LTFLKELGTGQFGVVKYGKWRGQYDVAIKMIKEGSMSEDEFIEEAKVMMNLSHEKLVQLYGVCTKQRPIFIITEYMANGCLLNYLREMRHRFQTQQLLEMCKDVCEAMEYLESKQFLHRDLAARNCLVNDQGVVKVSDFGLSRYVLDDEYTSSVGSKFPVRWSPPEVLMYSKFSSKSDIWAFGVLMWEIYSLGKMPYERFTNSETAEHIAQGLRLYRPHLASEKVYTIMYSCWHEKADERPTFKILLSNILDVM

Row | SMILES | inhibition at 10 µM [%]
1 | ClCCN(Cc1ccccc1)Cc1ccccc1 [PCM-0216162] | -20.1
2 | C/C=C(\C)C(=O)N[C@@H](c1ccccc1)[C@@H](O)C(=O)O[C@H]1C[C@@]2(O)[C@@H](OC(=O)c3ccccc3)[C@@H]3[C@]4(OC(C)=O)CO[C@@H]4C[C@H](O)[C@@]3(C)C(=O)[C@H](OC(C)=O)C(=C1C)C2(C)C [PCM-0214711] | -8.6
3 | CC1=C[C@@H]2C(=O)[C@]3(C=C(C)[C@H](O)[C@@]3(O)[C@@H]1O)[C@H](C)C[C@@H]1[C@H]2C1(C)C [PCM-0216603] | 3.9
4 | C[C@@]12N[C@@H](Cc3ccccc31)c1ccccc12 [PCM-0086525] | -25.7

Same assay, conditions: read-out: BTK inhibition (%), 0.75 uM BTK, […] probe 3l, 15 min preincubation

Row | SMILES | inhibition at 10 µM [%]
5 | C=CC(=O)N1CCC(Oc2cc3c(Nc4ccc(Cl)c(Cl)c4F)ncnc3cc2OC)CC1 [PCM-0215416] | 119
6 | CN(CCOc1ccc(NS(C)(=O)=O)cc1)CCc1ccc(NS(C)(=O)=O)cc1 [PCM-0065138] | -7
7 | CO[C@@H](C(=O)N1Cc2[nH]nc(NC(=O)c3ccc(N4CCN(C)CC4)cc3)c2C1)c1ccccc1 [PCM-0094888] | 85.5
8 | O=C(O)CC1CC(c2ccccc2)=NO1 (centres unmarked) [PCM-0215292] | -2.1
9 | Cc1cc2nc3c(=O)[nH]c(=O)nc-3n(C[C@H](O)[C@H](O)[C@H](O)COP(=O)(O)O)c2cc1C [PCM-0215946] | 3.4
10 | C#Cc1cccc(Nc2ncnc3cc4c(cc23)OCCOCCOCCO4)c1 [PCM-0095422] | -16.6
11 | COc1ccc(-c2cc(=O)c3c(OC)c(OC)c(OC)c(OC)c3o2)cc1OC [PCM-0091108] | 2.3
12 | C[C@H]1[C@H](C)CC[C@]2(C(=O)O)CC[C@]3(C)C(=CC[C@@H]4[C@@]5(C)CC[C@H](O)C(C)(C)[C@@H]5CC[C@]43C)[C@H]12 [PCM-0214657] | 10.9
13 | O=c1[nH]c2ccccc2o1 [PCM-0216203] | 5.4
14 | COc1cc(/C=C/C(=O)OC[C@H]2O[C@H](O[C@]3(CO)O[C@H](CO)[C@@H](O)[C@@H]3OC(=O)/C=C/c3cc(OC)c(O)c(OC)c3)[C@H](O)[C@@H](O)[C@@H]2O)cc(OC)c1O [PCM-0216306] | -6.2
15 | COc1cc2nc(N3CCCC3)nc(NCCCCCN3CCCC3)c2cc1OC [PCM-0215440] | 17.8
16 | CCCCCCCCCCCCCCCCCCCCCC(=O)O [PCM-0216151] | 23.2
17 | COCCOC(=O)C1=C(C)NC(C)=C(C(=O)OC/C=C/c2ccccc2)C1c1cccc([N+](=O)[O-])c1 (centres unmarked) [PCM-0065102] | 59.9
18 | C/C=C/c1ccc(OC)cc1 [PCM-0090331] | 18.7
19 | CCOC(=O)[C@H](CCc1ccccc1)N[C@@H](C)C(=O)N(CC(=O)O)C1Cc2ccccc2C1 [PCM-0216640] | -10
20 | CC(C)N(CCC(=O)c1ccc2ccccc2c1)Cc1ccccc1 [PCM-0064875] | 29
21 | O=c1ccc2ccc(OCCCCN3CCN(c4cccc5sccc45)CC3)cc2[nH]1 [PCM-0214822] | 0.8
22 | CC(C)(C)C(=O)Oc1ccc(S(=O)(=O)Nc2ccccc2C(=O)NCC(=O)O)cc1 [PCM-0064760] | 11.7
23 | CC[C@H]1[C@@H](O)[C@@H]2[C@H](CC[C@]3(C)[C@@H]([C@H](C)CCC(=O)O)CC[C@@H]23)[C@@]2(C)CC[C@@H](O)C[C@@H]12 [PCM-0215390] | 2.3
24 | C[C@@H]1O[C@@H](Oc2c(-c3cc(O)c(O)c(O)c3)oc3cc(O)cc(O)c3c2=O)[C@H](O)[C@H](O)[C@H]1O [PCM-0089676] | -2.3
25 | CC/C(=C(/CC)c1ccc(O)cc1)c1ccc(O)cc1 [PCM-0086456] | -26.5
26 | CNCc1ccc(C)c(NC(=O)c2ccc(Nc3nc(-c4ccccc4)c4ccccc4n3)cc2)c1 [PCM-0095748] | 79.5
27 | C=CC(=O)Nc1ccc2ncnc(Nc3cccc(Br)c3)c2c1 [PCM-0095572] | 106
28 | O=CCc1ccccc1 [PCM-0216613] | 6.9

Row | SMILES | inhibition at 10 µM [%]
29 | COc1cc(C(C)=O)ccc1OCCCN1CCC(c2noc3cc(F)ccc23)CC1 [PCM-0095163] | -16.3
30 | CC[C@@H](CO)NCCN[C@@H](CC)CO [PCM-0090100] | 29.6
31 | CC[C@]12C=CCN3CC[C@@]4(c5ccc(OC)cc5N(C)[C@H]4[C@@](O)(C(=O)OC)[C@@H]1OC(C)=O)[C@@H]32 [PCM-0215165] | 6.2
32 | CC1=C(C(=O)Nc2cc3cn[nH]c3cc2F)C(c2ccc(C(F)(F)F)cc2)CC(=O)N1 (centres unmarked) [PCM-0095153] | 48.3
33 | COc1ccc(-c2ccc3ncc4c(c3c2)n(-c2ccc(N3CCNCC3)c(C(F)(F)F)c2)c(=O)n4C)cn1 [PCM-0095488] | 0.7
34 | O=C1Nc2ccc(I)cc2/C1=C/c1cc(Br)c(O)c(Br)c1 [PCM-0095540] | 52.4
35 | Cc1cccc(Nc2ccccc2C(=O)O)c1C [PCM-0085867] | 17.2
36 | N=C1CCCN1Cc1[nH]c(=O)[nH]c(=O)c1Cl [PCM-0214897] | -10.1
37 | Cn1c(=O)cc(N2CCC[C@@H](N)C2)n(Cc2ccccc2C#N)c1=O [PCM-0095535] | -11
38 | COc1cc2c(c(OC)c1OC)-c1c(cc3c(c1OC)OCO3)C[C@H](C)[C@](C)(O)[C@H]2OC(=O)c1ccccc1 [PCM-0216060] | 3.9
39 | NC1=NC(=O)/C(=C/c2ccc(O)cc2)S1 [PCM-0215596] | 17
40 | CCN(C)S(=O)(=O)Nc1ccc(F)c(C(=O)c2c[nH]c3ncc(-c4cnc(C5CC5)nc4)cc23)c1F [PCM-0215639] | 75.9
41 | O=c1cc(-c2ccc(O)cc2)oc2cc(O)cc(O)c12 [PCM-0064643] | 63.8
42 | C=C[C@@H]1C[C@]1(NC(=O)[C@@H]1C[C@@H]2CN1C(=O)[C@H](C(C)(C)C)NC(=O)O[C@@H]1C[C@H]1CCCCCc1nc3ccc(OC)cc3nc1O2)C(=O)NS(=O)(=O)C1CC1 [PCM-0214895] | -13.2
43 | Nc1cc(N)c(N)cc1N [PCM-0216082] | 31.7
44 | Cc1cn(-c2cc(NC(=O)c3ccc(C)c(Nc4nccc(-c5cnccn5)n4)c3)cc(C(F)(F)F)c2)cn1 [PCM-0215584] | -4.1
45 | CC(=O)[C@H]1CC[C@H]2[C@@H]3CC=C4C[C@@H](O)CC[C@]4(C)[C@H]3CC[C@]12C [PCM-0086127] | -22.6
46 | NC(=O)NCCC[C@H](N)C(=O)O [PCM-0215941] | -17.9
47 | O=C(Nc1cc(Cl)cc(Cl)c1O)c1c(O)c(Cl)cc(Cl)c1Cl [PCM-0215152] | 18.5
48 | O=C(O)c1ccc(CN2CCC(CN[C@@H]3C[C@H]3c3ccccc3)CC2)cc1 [PCM-0215597] | 0.8
49 | COc1ccc2c(c1O)-c1c(O)c(OC)cc3c1[C@H](C2)[N+](C)(C)CC3 [PCM-0216382] | -1.5
50 | C1CNCCNCCNCCN1 [PCM-0215094] | -4.7
51 | Cc1cc(C)nc(NC(=S)N2CCN(Cc3ccc(C(F)(F)F)cc3)CC2)c1 [PCM-0215867] | -17
52 | Cc1ncc([N+](=O)[O-])n1CC(C)O (centres unmarked) [PCM-0086479] | -3.9

Row | SMILES | inhibition at 10 µM [%]
53 | Cc1c(Cc2ccc3ccccc3n2)c2cc(F)ccc2n1CC(=O)O [PCM-0214780] | 8.6
54 | O=C(O)CCc1c[nH]c2ccccc12 [PCM-0215055] | -34.2
55 | Oc1ccc2ccccc2c1N=Nc1ccc(N=Nc2ccccc2)cc1 [PCM-0215976] | -3.1
56 | CCc1c2c(nc3ccc(OC(=O)N4CCC(N5CCCCC5)CC4)cc13)-c1cc3c(c(=O)n1C2)COC(=O)[C@]3(O)CC [PCM-0086493] | 6.9
57 | O=C(O)CCC1CCC(c2cc(F)ccc2F)(S(=O)(=O)c2ccc(Cl)cc2)CC1 (centres unmarked) [PCM-0095325] | -15.2
58 | CO[C@H]1/C=C/O[C@@]2(C)Oc3c(C)c(O)c4c(O)c(c(/C=N/N5CCN(C6CCCC6)CC5)c(O)c4c3C2=O)NC(=O)/C(C)=C\C=C\[C@H](C)[C@H](O)[C@@H](C)[C@@H](O)[C@@H](C)[C@H](OC(C)=O)[C@@H]1C [PCM-0086116] | 43.6
59 | CN1CCN(Cc2ccc(NC(=O)Nc3ccc(Oc4cc(NC(=O)C5CC5)ncn4)cc3)cc2C(F)(F)F)CC1 [PCM-0215388] | 79.5
60 | CN(C)[C@@H]1C(=O)C(C(N)=O)=C(O)[C@@]2(O)C(=O)C3=C(O)c4c(O)ccc(Cl)c4[C@@](C)(O)[C@H]3C[C@@H]12 [PCM-0215204] | 10.2
61 | COC(=O)c1ccc(O)c(OC)c1 [PCM-0214879] | -12.5
62 | COc1ccccc1N1CCN(CCN2C(=O)CC3(CCCC3)CC2=O)CC1 [PCM-0064586] | -3.1
63 | C[C@@H]1CN(CC(=O)Nc2ccc3c(c2)Cc2cccc(-c4cc(=O)cc(N5CCOCC5)o4)c2S3)C[C@H](C)O1 [PCM-0095132] | 26.2
64 | O=C(O)/C(Cc1ccccc1[N+](=O)[O-])=N/Nc1nc(-c2ccc(Cl)c(Cl)c2)cs1 [PCM-0215282] | 54.8
65 | N#Cc1cc(CN2CCC(Nc3ncnc4sc(Cl)cc34)CC2)ccc1F [PCM-0095600] | 2.3
66 | CC1(C)O[C@@H]2C[C@H]3[C@@H]4C[C@H](F)C5=CC(=O)C=C[C@]5(C)[C@@]4(F)[C@@H](O)C[C@]3(C)[C@]2(C(=O)CO)O1 [PCM-0086270] | -17.1
67 | CCn1cc(C(=O)O)c(=O)c2cc(F)c(N3CCNCC3)nc21 [PCM-0086249] | 4.7
68 | CNC(=O)[C@H](Cc1ccccc1)NC(=O)[C@H](CC(C)C)[C@H](CSc1cccs1)C(=O)NO [PCM-0215194] | 11.6
69 | COc1cc(O)c2c(=O)c(O[C@@H]3O[C@H](CO)[C@@H](O)[C@H](O)[C@H]3O)c(-c3ccc(O[C@@H]4O[C@H](CO)[C@@H](O)[C@H](O)[C@H]4O)cc3)oc2c1 [PCM-0216473] | 7.7
70 | CCc1c2c(nc3ccccc13)-c1cc3c(c(=O)n1C2)COC(=O)[C@]3(O)CC [PCM-0215967] | -20.8
71 | O=c1c(-c2ccc(O)cc2)coc2cc(O)ccc12 [PCM-0065064] | -7.8
72 | CCCCOC(=O)c1ccccc1Nc1cccc(C(F)(F)F)c1 [PCM-0216094] | 21.4
73 | Cc1ccc(-n2sc(=O)n(Cc3ccc(F)cc3)c2=O)cc1 [PCM-0095367] | -12.5
74 | CC1=C(/C=C/C(C)=C/C=C/C(C)=C/C=C/C=C(C)/C=C/C=C(C)/C=C/C2=C(C)C(=O)[C@@H](O)CC2(C)C)C(C)(C)C[C@H](O)C1=O [PCM-0214960] | 16.6
